Measurements reported in ChEMBL document CHEMBL1201862, “PubChem BioAssay data set” (2004).
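Dose response: 5 concentrations. Exposure: 48 h. Format: 96-well plates. Endpoint: linear interpolation; highest concentration if not reached. GI50 marks 50% less growth.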 The source made the active and inactive calls. Rule as the data show it: active = GI50 up to about 1.1 µM and inactive = higher.

Key:
Test in all cases: NCI tumour cell line growth inhibition, 48 h
M19-MEL = system: M19-MEL
DMS-114 = system: DMS-114
HOP-18 = system: HOP-18
SNB-78 = system: SNB-78
KM-20L2 = system: KM-20L2
DLD-1 = system: DLD-1
XF498 = system: XF498
RXF 631 = system: RXF 631
LXFL 529 = system: LXFL 529

Row | Structure (SMILES) | GI50 (M19-MEL) | GI50 (DMS-114) | GI50 (HOP-18) | GI50 (SNB-78) | GI50 (KM-20L2) | GI50 (DLD-1) | GI50 (XF498) | GI50 (RXF 631) | GI50 (LXFL 529)
1 | COc1cccc2c1C(=O)c1c(O)c3c(c(O)c1C2=O)C[C@@](O)(/C(C)=N/NC(=O)c1ccccc1)C[C@@H]3OC1CC(N)C(O)C(C)O1 (stereo partly specified) | 0.302 µM (active) | 0.202 µM (active) | 0.454 µM (active) | 0.658 µM (active) | 0.807 µM (active) | 1.69 µM (inactive) | 0.0803 µM (active) | – | –
2 | CC1(C)Oc2ccccc2[N+]([O-])=C1c1ccccc1 | > 100 µM (inactive) | > 100 µM (inactive) | – | > 100 µM (inactive) | > 100 µM (inactive) | > 100 µM (inactive) | – | > 100 µM (inactive) | > 100 µM (inactive)
3 | O=C1OC(=O)c2c1c(-c1ccccc1)nc1ccccc21 | > 100 µM (inactive) | > 100 µM (inactive) | – | > 100 µM (inactive) | > 100 µM (inactive) | > 100 µM (inactive) | > 100 µM (inactive) | > 100 µM (inactive) | > 100 µM (inactive)
4 | Cc1cc(S(=O)(=O)O)c(NC(=O)C(=O)Cc2cc(=O)oc3cc(O)ccc23)cc1Cl | > 100 µM (inactive) | > 100 µM (inactive) | > 100 µM (inactive) | – | > 100 µM (inactive) | > 100 µM (inactive) | – | > 100 µM (inactive) | –
5 | COC(=O)C(=Cc1cc(OC)c(OC)c(OC)c1-c1cc2c(cc1C1(C)OCCS1)OCO2)C(=O)OC (stereo unspecified) | 23 µM (inactive) | 19.8 µM (inactive) | – | – | 22.3 µM (inactive) | 27.6 µM (inactive) | – | 31.4 µM (inactive) | 24.1 µM (inactive)
6 | N#C/N=C(/N)NCN/C(N)=N\C#N | > 100 µM (inactive) | > 100 µM (inactive) | > 100 µM (inactive) | > 100 µM (inactive) | > 100 µM (inactive) | 81.5 µM (inactive) | – | > 100 µM (inactive) | > 100 µM (inactive)
7 | c1ccc2c(c1)cc1n2CC2CN=NC12 (stereo unspecified) | > 100 µM (inactive) | – | – | > 100 µM (inactive) | > 100 µM (inactive) | > 100 µM (inactive) | – | > 100 µM (inactive) | > 100 µM (inactive)
8 | O=C(c1ccccc1)n1cc(/C=C/[N+](=O)[O-])c2ccccc21 | 20.8 µM (inactive) | 21.8 µM (inactive) | > 100 µM (inactive) | 30.9 µM (inactive) | – | 18.4 µM (inactive) | 29.8 µM (inactive) | 17.3 µM (inactive) | 18.5 µM (inactive)
9 | COC(=O)c1sc(=NC(=S)N2CCCCC2)sc1C(=O)OC | 5.69 µM (inactive) | 62.7 µM (inactive) | > 100 µM (inactive) | > 100 µM (inactive) | > 100 µM (inactive) | > 100 µM (inactive) | – | 62.7 µM (inactive) | > 100 µM (inactive)
10 | CC(C)c1ccccc1NC(=O)C(=O)Cc1nc2ccccc2s1 | > 100 µM (inactive) | > 100 µM (inactive) | > 100 µM (inactive) | > 100 µM (inactive) | > 100 µM (inactive) | – | – | > 100 µM (inactive) | > 100 µM (inactive)
11 | Nc1ncn([C@@H]2C=C(CO)C(O)C2O)c(=O)n1 (stereo partly specified) | > 100 µM (inactive) | – | > 100 µM (inactive) | 61.5 µM (inactive) | 63.8 µM (inactive) | 58.2 µM (inactive) | > 100 µM (inactive) | > 100 µM (inactive) | 75 µM (inactive)
12 | CC1OC(CC(=O)O)CC2=C1C(=O)c1c(O)cccc1C2=O (stereo unspecified) [NANAOMYCIN] | 0.0845 µM (active) | 0.129 µM (active) | 2.41 µM (inactive) | 0.13 µM (active) | 0.225 µM (active) | 0.0192 µM (active) | 0.166 µM (active) | 0.6 µM (active) | 0.0851 µM (active)
13 | COc1cccc(C2CC23C(=O)NC(=O)NC3=O)c1 (stereo unspecified) | > 100 µM (inactive) | > 100 µM (inactive) | – | > 100 µM (inactive) | > 100 µM (inactive) | – | > 100 µM (inactive) | – | > 100 µM (inactive)
14 | CC1=C(C(=O)Nc2ccc([N+](=O)[O-])cc2)C(c2ccccc2F)C(C(=O)Nc2ccc([N+](=O)[O-])cc2)=C(C)N1 | 14.2 µM (inactive) | 5.07 µM (inactive) | – | – | 12.3 µM (inactive) | 8.45 µM (inactive) | 1.48 µM (inactive) | 21.3 µM (inactive) | 6.92 µM (inactive)
15 | CCC1CN2CCc3cc(OC)c(OC)cc3C2CC1CC1c2cc(OC)c(OC)cc2CCN1C(=O)CNC(=O)OC(C)(C)C (stereo unspecified) | 16.3 µM (inactive) | 3.8 µM (inactive) | 23.3 µM (inactive) | 20.5 µM (inactive) | 5.08 µM (inactive) | 4.67 µM (inactive) | 7.53 µM (inactive) | 30.3 µM (inactive) | 10.9 µM (inactive)
16 | CCOC(=O)C1=C(OC(OCC)C([Se]c2ccccc2)C(C)C)CCC1 (stereo unspecified) | 15.3 µM (inactive) | – | 16.2 µM (inactive) | 12.8 µM (inactive) | 28.8 µM (inactive) | 14.7 µM (inactive) | 11.6 µM (inactive) | – | 12.2 µM (inactive)
17 | COc1ccc(O)cc1 [MEQUINOL] | 95.3 µM (inactive) | 48.4 µM (inactive) | – | > 100 µM (inactive) | 28.6 µM (inactive) | > 100 µM (inactive) | > 100 µM (inactive) | – | 33.6 µM (inactive)
18 | Nc1nc(SCCC/C=C/I)nc2c1ncn2C1OC(CO)C(O)C1O (stereo unspecified) | > 202 µM (inactive) | > 202 µM (inactive) | > 202 µM (inactive) | > 202 µM (inactive) | > 202 µM (inactive) | > 202 µM (inactive) | > 202 µM (inactive) | – | –
19 | Cc1nc(Nc2ccc(Cl)cc2)sc1C(=O)Nc1cccc2c(=O)[nH][nH]c(=O)c12 | 30.3 µM (inactive) | 19.2 µM (inactive) | – | > 100 µM (inactive) | 11.8 µM (inactive) | 17.5 µM (inactive) | – | – | 13.1 µM (inactive)
20 | CCOP(=O)(OCC)C1=NC=CC=CC1n1c(-c2ccccc2)nn(CC)c1=O (stereo unspecified) | > 100 µM (inactive) | > 100 µM (inactive) | > 100 µM (inactive) | – | > 100 µM (inactive) | > 100 µM (inactive) | – | > 100 µM (inactive) | > 100 µM (inactive)
21 | CC(=O)C1C(=O)C(=O)N(c2ccccc2C(C)C)C1=O (stereo unspecified) | > 100 µM (inactive) | – | > 100 µM (inactive) | > 100 µM (inactive) | > 100 µM (inactive) | – | > 100 µM (inactive) | – | > 100 µM (inactive)
22 | COc1ccc2[nH]c3ccc4cc[n+](CCN5CCC(C6CCN(CC[n+]7ccc8ccc9[nH]c%10ccc(OC)cc%10c9c8c7)CC6)CC5)cc4c3c2c1 | 0.719 µM (active) | 0.125 µM (active) | 1.79 µM (inactive) | 9.12 µM (inactive) | 1.36 µM (inactive) | 0.824 µM (active) | > 60.1 µM (inactive) | – | –
23 | CC(C1=CC=C2[C@@H]3CCC4CC(N(C)C)CC[C@]4(C)C3CC[C@]12C)N(C)C=O (stereo partly specified) | > 100 µM (inactive) | 91.6 µM (inactive) | > 100 µM (inactive) | – | – | > 100 µM (inactive) | – | – | > 100 µM (inactive)
24 | Cc1cccc2c1Sc1ccccc1C2NC(=O)CCN(C)C (stereo unspecified) | > 100 µM (inactive) | > 100 µM (inactive) | – | > 100 µM (inactive) | > 100 µM (inactive) | > 100 µM (inactive) | – | – | > 100 µM (inactive)
25 | CCOC(=O)C(Cc1cc(OC)c(CC(C(=O)OCC)C(=O)OCC)cc1OC)C(=O)OCC | > 100 µM (inactive) | > 100 µM (inactive) | – | 57.9 µM (inactive) | > 100 µM (inactive) | > 100 µM (inactive) | 21.6 µM (inactive) | – | > 100 µM (inactive)
26 | O=C(O)CCCCCO | > 100 µM (inactive) | > 100 µM (inactive) | > 100 µM (inactive) | > 100 µM (inactive) | > 100 µM (inactive) | > 100 µM (inactive) | > 100 µM (inactive) | – | > 100 µM (inactive)
27 | COC(=O)/C(C#N)=C1\CCC(OC)N1 (stereo unspecified) | > 100 µM (inactive) | > 100 µM (inactive) | > 100 µM (inactive) | > 100 µM (inactive) | > 100 µM (inactive) | > 100 µM (inactive) | > 100 µM (inactive) | – | > 100 µM (inactive)
28 | Nc1nc(N)c2c(Cl)c(CNc3ccc(Cl)c(Cl)c3)ccc2n1 | 0.0238 µM (active) | < 0.01 µM (active) | 0.716 µM (active) | 7.19 µM (inactive) | 0.225 µM (active) | < 0.01 µM (active) | 2.07 µM (inactive) | – | < 0.0278 µM (active)
29 | CC1C[C@]2(C[C@@H](C)C(=O)O2)O[C@@H]2CC3(C)[C@@H]4CCC5C(C)(C)OC(=O)C[C@H]6OO[C@]4(CC[C@]3(C)C12)CC56O (stereo partly specified) | – | > 100 µM (inactive) | > 100 µM (inactive) | > 100 µM (inactive) | – | > 100 µM (inactive) | > 100 µM (inactive) | – | > 100 µM (inactive)
30 | CCOC(=O)/C(=C/c1cccc(Cl)c1)N(CC)CC | 88.7 µM (inactive) | 31 µM (inactive) | 24.2 µM (inactive) | – | – | 48.9 µM (inactive) | 46.3 µM (inactive) | – | 46.7 µM (inactive)
